Tested on: dissociated cortical neurons
Test: Phosphorylation of signalling molecules (Western blot)
Type: cell-based, mouse
Settings: 50 ng/ml, 10 min treatment, FIG. 5B
Protocol: A: Cortical outgrowth in response to 50 ng/ml IL-4, Link4, or Link13, compared to PBS control. The increase in growth at 48 h was calculated over the basal (untreated) growth at 24 h. B: Effects on phosphorylation of signalling molecules after 10 min treatment of dissociated cortical neurons with IL-4, Link4 or PBS.
Neonatal (P1-3) cortex explants were dissected from 250 μm thick vibratome (HM650V, Thermo Fisher) sections from Bregma 0 to −1.5 (motor cortex). Cortical layer V was micro-dissected, plated on poly-D-lysine (0.5 mg/ml) and laminin (1 mg/ml)-coated glass coverslips and grown for 24 h in neurobasal medium with 2% horse serum, 2% B27, 1% glutamax and 0.5% penicillin/streptomycin. Explants were treated for 48 h with rIL-4 (50 ng/ml), Link4 (50 ng/ml), Link13 (50 ng/ml) or PBS. Axon length was assessed using Adobe Photoshop by measuring the distance of the 40 longest axons, corrected for the initial growth at 24 h. […]
For Western blotting, the following primary antibodies were used: anti-IRS1 (EMD Millipore), anti-phospho-IRS1 (Cell Signaling Technology), anti-MAPK and anti-phospho-MAPK (Cell Signaling Technology), anti-PKCγ (Santa-Cruz), anti-phospho-PKCγ (Biozol). DyLight […]-coupled secondary antibodies were used for quantitative analysis of the proteins using the Li-Cor Odyssey FC imaging system (Li-Cor Bioscience). […]

## RARSEIIGIGSKSIMQMDY (listed as Mus musculus) [Link4]
  phosphorylation of signalling molecules (neuronal signalling): same neuronal signalling effects as IL-4
